How the values were obtained:
Assay in all cases: Competition binding bead assay with immobilized compound 6 in cell lysate, iTRAQ LC-MS/MS quantitation
SETD7 = target: T1, SETD7 (Homo sapiens, UniProt Q8WTS6); details: SETD7 (IPI00028366.2); 200 μM free compound 6; mixed Jurkat and Ramos cell lysates; versus DMSO solvent control
T1 construct: endogenous in cells; host or cells: Jurkat (ATCC TIB-152) and Ramos (ATCC CRL-1596) cells, mixed lysate
T1 sequence (Q8WTS6 1-366): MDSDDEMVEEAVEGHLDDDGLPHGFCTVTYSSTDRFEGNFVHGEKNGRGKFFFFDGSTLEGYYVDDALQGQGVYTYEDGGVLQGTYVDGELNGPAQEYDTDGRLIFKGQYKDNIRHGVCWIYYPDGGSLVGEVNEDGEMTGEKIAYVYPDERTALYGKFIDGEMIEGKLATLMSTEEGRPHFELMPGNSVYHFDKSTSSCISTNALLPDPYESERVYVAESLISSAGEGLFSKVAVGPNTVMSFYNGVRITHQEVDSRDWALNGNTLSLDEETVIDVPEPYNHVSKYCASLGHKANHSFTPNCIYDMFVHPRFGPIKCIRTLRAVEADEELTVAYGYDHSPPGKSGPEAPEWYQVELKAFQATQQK
Method: (§1) To the first aliquot of cell lysate 200 μM of the free compound 6 was added and allowed to bind to proteins in the lysate. Then the affinity matrix with the immobilized compound (Example 1) was added to capture proteins that were not interacting with the previously added free compound. Beads were separated from the lysate and bead bound proteins were eluted in SDS sample buffer and subsequently separated by SDS-Polyacrylamide gel electrophoresis. Suitable gel bands were cut out and subjected to in-gel proteolytic digestion with trypsin. The second lysate aliquot was processed identically, however no free compound was added (DMSO solvent control). Peptides originating from samples 1 and 2 were labeled with iTRAQ reagents (iTRAQ 114 and iTRAQ 116) and the combined samples were analyzed with a nano-flow liquid chromatography system coupled online to a tandem mass spectrometer (LC-MS/MS) experiment followed by iTRAQ reporter ion quantification in the MS/MS spectra (Ross et al., 2004. Mol. Cell. Proteomics 3(12):1154-1169). Further experimental protocols can be found in WO2006/134056 and a previous publication (Bantscheff et al., 2007. Nature Biotechnology 25, 1035-1044).
(§2) The identified methyltransferases are shown in Table 5 including the percent competition values for the sample to which 200 μM free compound had been added. […]

SMYD5 = target: T2, SMYD5 (Homo sapiens, UniProt Q6GMV2); details: SMYD5 (IPI00013789.5); 200 μM free compound 6; mixed Jurkat and Ramos cell lysates; versus DMSO solvent control
T2 construct: endogenous in cells; host or cells: Jurkat (ATCC TIB-152) and Ramos (ATCC CRL-1596) cells, mixed lysate
T2 sequence (Q6GMV2 1-418): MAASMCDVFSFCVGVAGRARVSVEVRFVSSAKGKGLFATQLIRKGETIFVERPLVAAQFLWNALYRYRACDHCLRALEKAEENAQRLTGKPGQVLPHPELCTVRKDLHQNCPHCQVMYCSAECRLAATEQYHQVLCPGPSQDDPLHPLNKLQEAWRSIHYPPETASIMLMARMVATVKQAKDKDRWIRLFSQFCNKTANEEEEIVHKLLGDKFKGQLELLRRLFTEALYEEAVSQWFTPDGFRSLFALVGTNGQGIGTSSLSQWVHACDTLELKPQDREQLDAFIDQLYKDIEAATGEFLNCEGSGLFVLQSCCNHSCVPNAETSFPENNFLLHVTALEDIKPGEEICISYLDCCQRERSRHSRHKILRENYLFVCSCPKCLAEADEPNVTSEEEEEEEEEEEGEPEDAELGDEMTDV
Method: as §1, §2

DPH5 = system: DPH5; design: species or system human; details: 200 μM free compound 6, mixed Jurkat and Ramos cell lysates, versus DMSO solvent control
Method: as §1, §2

% Competition (SETD7): 94.1%
% Competition (SMYD5): 95.9%
SMILES: NCCCNc1nc(N)c2ncn([C@@H]3O[C@H](CSCC[C@H](N)C(=O)O)[C@@H](O)[C@H]3O)c2n1 [Compound 6, (S)-2-amino-4-((((2S,3S,4R,5R)-5-(6-amino-2-((3-aminopropyl)amino)-9H-purin-9-yl)-3,4-dihydroxytetrahydrofuran-2-yl)methyl)thio)butanoic acid]
% Competition (DPH5): 50.0%

Reference: US20130210664A1, “Methods for the Identification of Methyltransferase Interacting Molecules and for the Purification of Methyltransferase Proteins” (Cellzome AG, priority 2010, published 2013)
